Molecules are shown by their SMILES. Where two headings read alike, the source gives them in different places.

The test concerns the target soluble guanylate cyclase (sGC) (Homo sapiens (Human), UniProt Q02108+Q02153). Briefly: sGC-HEK-cGMP assay run with SNP incubation (HEK WC assay). Format: cell-based. The following applies: for EC50: in the presence of 10 uM SNP. As to the method: Human embryonic kidney cells (HEK293), endogenously expressing soluble guanylate cyclase (sGC), were used to evaluate the activity of test compounds. Compounds stimulating the sGC receptor should cause an increase in the intracellular concentration of cGMP. HEK 293 cells were seeded in Dulbecco's Modification of Eagle's Medium supplemented with fetal bovine serum (10% final) and L-glutamine (2 mM final) in a 200 μL volume at a density of 1×10^5 cells/well in a poly-D-lysine coated 96 well flat bottom plate and grown overnight at 37° C. Medium was aspirated and cells were washed with 1× Hank's Buffered Saline Salt Solution (200 μL). Cells were then incubated for 15 minutes at 37° C. with 0.5 mM 3-isobutyl-1-methylxanthine (200 μL). Test article and sodium nitroprusside were then added to the assay mixture (2 μL each) and incubated at 37° C. for 10 minutes. After the 10 minute incubation, the assay mixture was aspirated and 0.1M HCl (200 μL) was added to the cells. The plate was incubated at 4° C. for 30 minutes in the 0.1M HCl to stop the reaction and lysed the cells. The plates were then centrifuged at 1,200 g for 5 minutes at room temperature. Supernatants were collected and transferred to a new flat bottom 96 well plate for analysis. Vehicle controls were carried out using DMSO (1%). […] Samples were diluted with an equal volume of 1 M Ammonium Acetate (pH 7) to neutralize samples for better chromatography. […] EC50 values were calculated from concentration-response curves generated with GraphPad Prism Software.

Setting [1] is: read-out: HEK WC Assay (% Emax at 1 μM with 10 uM SNP).
Setting [2] is: read-out: HEK WC Assay (% Emax at 10 μM with 10 uM SNP).
[3] abbreviates: read-out: HEK WC Assay (% Emax at 30 μM with 10 uM SNP).

soluble guanylate cyclase (sGC), sequence (Q02153 whole entry): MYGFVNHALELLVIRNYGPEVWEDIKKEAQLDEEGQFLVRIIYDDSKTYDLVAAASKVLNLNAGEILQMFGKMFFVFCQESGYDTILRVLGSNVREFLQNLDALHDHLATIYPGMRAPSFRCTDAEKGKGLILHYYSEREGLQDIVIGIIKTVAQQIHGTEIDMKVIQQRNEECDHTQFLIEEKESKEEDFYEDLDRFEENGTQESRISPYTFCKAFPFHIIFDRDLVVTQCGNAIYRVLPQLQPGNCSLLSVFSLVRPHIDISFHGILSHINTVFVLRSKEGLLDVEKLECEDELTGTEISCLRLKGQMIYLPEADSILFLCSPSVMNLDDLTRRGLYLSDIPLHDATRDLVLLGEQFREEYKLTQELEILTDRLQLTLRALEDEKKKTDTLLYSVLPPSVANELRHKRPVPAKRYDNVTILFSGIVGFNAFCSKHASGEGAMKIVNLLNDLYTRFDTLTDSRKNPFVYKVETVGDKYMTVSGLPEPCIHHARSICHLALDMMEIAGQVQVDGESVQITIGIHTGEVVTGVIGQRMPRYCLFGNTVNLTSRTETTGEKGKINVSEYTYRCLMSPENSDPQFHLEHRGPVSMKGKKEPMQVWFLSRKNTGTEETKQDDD
soluble guanylate cyclase (sGC), sequence (Q02108 whole entry): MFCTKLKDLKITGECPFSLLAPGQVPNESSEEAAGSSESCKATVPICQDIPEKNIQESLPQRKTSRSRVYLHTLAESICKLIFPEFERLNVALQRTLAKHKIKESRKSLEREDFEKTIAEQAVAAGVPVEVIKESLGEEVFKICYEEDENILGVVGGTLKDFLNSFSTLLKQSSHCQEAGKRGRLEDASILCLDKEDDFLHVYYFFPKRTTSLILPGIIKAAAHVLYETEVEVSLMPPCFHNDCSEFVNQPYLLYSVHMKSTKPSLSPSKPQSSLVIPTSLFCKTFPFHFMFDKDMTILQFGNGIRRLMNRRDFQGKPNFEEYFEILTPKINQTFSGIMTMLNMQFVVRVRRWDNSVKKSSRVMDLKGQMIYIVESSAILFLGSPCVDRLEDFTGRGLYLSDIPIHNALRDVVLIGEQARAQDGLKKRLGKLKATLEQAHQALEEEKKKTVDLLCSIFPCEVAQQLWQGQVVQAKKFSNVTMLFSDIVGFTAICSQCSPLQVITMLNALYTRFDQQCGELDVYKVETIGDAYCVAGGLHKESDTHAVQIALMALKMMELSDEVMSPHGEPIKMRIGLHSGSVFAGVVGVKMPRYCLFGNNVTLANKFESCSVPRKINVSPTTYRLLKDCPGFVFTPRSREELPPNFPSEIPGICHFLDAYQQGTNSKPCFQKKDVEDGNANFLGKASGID

With `CC(C)(C)[S+]([O-])Nc1cnc(-c2cc(-c3ccon3)n(Cc3ccccc3F)n2)nc1N[S+]([O-])C(C)(C)C` (centres unmarked) [Compound I-250], the EC50 lay within 100 to 300 µM. Also, the Emax under setting [1] fell in the range of 0 to 10%. Further, under setting [2], the Emax lay in the range of 10 to 20%. Moreover, the Emax under setting [3] fell in the range of 10 to 20%.

Consider `Fc1ccccc1Cn1nc(-c2ccccn2)cc1-n1cccn1` [Compound I-286], for which the Emax runs as follows: under setting [2], 0 to 10%; under setting [3], 10 to 20%.

For the molecule `Fc1ccccc1Cn1nc(-c2nc(Cl)cc(-c3cccnc3)n2)cc1-c1ccon1` [Compound I-301], the EC50 was less than 20 µM. Under setting [2], the Emax fell in the range of 40 to 60%. Under setting [3], the Emax was 60 to 80%.

In the case of `CN(C)/C=N/c1cnc(-c2cc(-c3ccon3)n(Cc3ccccc3F)n2)nc1` [Compound I-249, N′-(2-(1-(2-fluorobenzyl)-5-(isoxazol-3-yl)-1H-pyrazol-3-yl)pyrimidin-5-yl)-N,N-dimethylformimidamide], the EC50 is less than 20 µM. Also, under setting [1], the Emax lay within 20 to 40%. Besides, the Emax under setting [2] was 40 to 60%. Moreover, the Emax under setting [3] lay within 60 to 80%.

On to `CS(=O)(=O)c1ccc(-c2cc(-c3ccccn3)nn2Cc2ccccc2F)nc1` [Compound I-73], for which the Emax at 10 µM (read-out: HEK WC Assay (% Emax at 10 μM/with 10 uM SNP)) lay within 0 to 10%. Besides, the Emax at 30 µM (read-out: HEK WC Assay (% Emax at 30 μM/with 10 uM SNP)) was in the range of 0 to 10%.

For `O=S(=O)(c1cc(Cl)ccc1Cl)c1cnc(-c2cc(-c3ccon3)n(Cc3ccccc3F)n2)nc1O` [Compound I-242], the EC50 is 60 to 100 µM. Also, the Emax under setting [1] was 10 to 20%. Under setting [2], the Emax lay in the range of 20 to 40%. The Emax under setting [3] was in the range of 20 to 40%.

Regarding `Fc1ccccc1Cn1nc(-c2ncc(F)c(S)n2)cc1-c1ccon1` [Compound I-267], the Emax under setting [1] lay in the range of 20 to 40%, the Emax under setting [2] is 60 to 80% and the Emax under setting [3] fell in the range of 80 to 100%.

Turning to `CC(C)(C)S(=O)(=O)Nc1cnc(-c2cc(-c3ccon3)n(Cc3ccccc3F)n2)nc1N` [Compound I-251], the EC50 was in the range of 20 to 40 µM. For the same molecule, the Emax under setting [1] was in the range of 10 to 20%. The Emax under setting [2] lay within 20 to 40%. Besides, under setting [3], the Emax lay within 20 to 40%.

In the case of `CC(C)(CCl)C(=O)Nc1cnc(-c2cc(-c3ccon3)n(Cc3ccccc3F)n2)nc1N` [Compound I-268], the EC50 was less than 20 µM. For the same molecule, under setting [1], the Emax lay in the range of 40 to 60%. Moreover, the Emax under setting [2] was in the range of 100 to 120%. Under setting [3], the Emax fell in the range of 80 to 100%.

On to `CN(C)C(=O)Oc1cnc(-c2cc(-c3ccon3)n(Cc3ccccc3F)n2)nc1` [Compound I-274], for which the Emax was in the range of 20 to 40% under setting [1], 60 to 80% under setting [2] and 60 to 80% under setting [3].

On to `Oc1cc(O)nc(-c2cc(-c3ccon3)n(Cc3ccccc3F)n2)n1` [Compound I-261], for which the EC50 is 300 to 600 µM. Further, the Emax under setting [1] was 0 to 10%. The Emax under setting [2] was in the range of 0 to 10%. Also, the Emax under setting [3] is 0 to 10%.

As for `Oc1nc(-c2cc(-c3ccon3)n(Cc3ccccc3F)n2)ncc1Cl` [Compound I-266], the EC50 was less than 20 µM. The Emax under setting [1] was 20 to 40%. For the same molecule, under setting [2], the Emax was in the range of 60 to 80%. Moreover, the Emax under setting [3] lay within 60 to 80%.

For `CC(C)(C)OC(=O)n1c(=O)[nH]c2nc(-c3cc(-c4ccon4)n(Cc4ccccc4F)n3)ncc21` [Compound I-312], the EC50 was in the range of 40 to 60 µM. Besides, the Emax under setting [1] lay in the range of 20 to 40%. Moreover, under setting [2], the Emax was in the range of 20 to 40%. For the same molecule, under setting [3], the Emax lay in the range of 20 to 40%.

As to `[2H]C([2H])([2H])C(=O)Nc1cnc(-c2cc(-c3ccon3)n(Cc3ccccc3F)n2)nc1N` [Compound I-263], the EC50 was less than 20 µM. Besides, under setting [1], the Emax is 40 to 60%. For the same molecule, the Emax under setting [2] lay within 100 to 120%. Further, the Emax under setting [3] was in the range of 100 to 120%.

In the case of `O=S(=O)(c1ccccc1)c1cnc(-c2cc(-c3ncco3)n(Cc3ccccc3F)n2)nc1O` [Compound I-271], the EC50 was less than 20 µM. In addition, under setting [1], the Emax fell in the range of 40 to 60%. Also, the Emax under setting [2] fell in the range of 60 to 80%. Moreover, under setting [3], the Emax lay within 80 to 100%.

As to `CC1(C(=O)Nc2cnc(-c3cc(-c4ccon4)n(Cc4ccccc4F)n3)nc2N)CC1(Cl)Cl` (centres unmarked) [Compound I-260], the EC50 is less than 20 µM. For the same molecule, under setting [1], the Emax fell in the range of 80 to 100%. For the same molecule, under setting [2], the Emax was 100 to 120%. Besides, the Emax under setting [3] lay within 80 to 100%.

As to `CS(=O)(=O)Nc1cnc(-c2cc(-c3ccon3)n(Cc3ccccc3F)n2)nc1N` [Compound I-145], the Emax runs as follows: under setting [2], 20 to 40%; under setting [3], 20 to 40%.

Turning to `CC(C)(O)c1cnc(-c2cc(-c3ncco3)n(Cc3ccccc3F)n2)nc1N` [Compound I-146], the Emax is, setting by setting: under setting [2], 40 to 60%; under setting [3], 40 to 60%.

`O=[N+]([O-])c1c(O)nc(-c2cc(-c3ccon3)n(Cc3ccccc3F)n2)nc1O` [Compound I-282]: the EC50 lay in the range of 900 to 1200 µM. Besides, under setting [1], the Emax was in the range of 0 to 10%. Further, the Emax under setting [2] fell in the range of 0 to 10%. For the same molecule, the Emax under setting [3] was 0 to 10%.

Consider `C=CC(C)(C)C(=O)Nc1cnc(-c2cc(-c3ccon3)n(Cc3ccccc3F)n2)nc1N` [Compound I-246], for which the EC50 was less than 20 µM. The Emax under setting [1] is 60 to 80%. Moreover, the Emax under setting [2] was 100 to 120%. For the same molecule, the Emax under setting [3] fell in the range of 100 to 120%.

For the molecule `Nc1nc(-c2cc(-c3ccon3)n(Cc3ccccc3F)n2)ncc1NC(=O)C1CCCCC1` [Compound I-157], the Emax fell in the range of 100 to 120% under setting [2] and 80 to 100% under setting [3].

Regarding `Nc1cnc(-c2cc(-c3ccon3)n(Cc3ccccc3F)n2)nc1` [Compound I-262], the EC50 was less than 20 µM. Also, under setting [1], the Emax fell in the range of 20 to 40%. In addition, under setting [2], the Emax lay within 60 to 80%. Besides, the Emax under setting [3] was 60 to 80%.

`CCCC(F)(F)C(=O)Nc1cnc(-c2cc(-c3ccon3)n(Cc3ccccc3F)n2)nc1N` [Compound I-252]: the EC50 is less than 20 µM. Moreover, the Emax under setting [1] lay in the range of 40 to 60%. The Emax under setting [2] lay within 40 to 60%. Moreover, the Emax under setting [3] was in the range of 60 to 80%.

In the case of `O=c1cc(O)oc2nc(-c3cc(-c4ccon4)n(Cc4ccccc4F)n3)nc(O)c12` [Compound I-248], the EC50 is 600 to 900 µM. Further, the Emax under setting [1] lay in the range of 0 to 10%. The Emax under setting [2] fell in the range of 0 to 10%. In addition, the Emax under setting [3] is 0 to 10%.

For the molecule `CC(C)(CO)C(=O)Nc1cnc(-c2cc(-c3ccon3)n(Cc3ccccc3F)n2)nc1N` [Compound I-265], the EC50 is less than 20 µM. The Emax under setting [1] fell in the range of 40 to 60%. In addition, the Emax under setting [2] lay within 60 to 80%. In addition, under setting [3], the Emax fell in the range of 80 to 100%.

`CC(C)(Oc1ccccc1)C(=O)Nc1cnc(-c2cc(-c3ccon3)n(Cc3ccccc3F)n2)nc1N` [Compound I-230]: the EC50 was 60 to 100 µM. Further, the Emax under setting [1] is 10 to 20%. For the same molecule, under setting [2], the Emax was in the range of 20 to 40%. In addition, the Emax under setting [3] was 20 to 40%.

Turning to `CCC(C)(C)C(=O)Nc1cnc(-c2cc(-c3ccon3)n(Cc3ccccc3F)n2)nc1N` [Compound I-247], the EC50 is less than 20 µM. For the same molecule, the Emax under setting [1] was 20 to 40%. Also, the Emax under setting [2] was 60 to 80%. In addition, under setting [3], the Emax was in the range of 80 to 100%.

In the case of `C=C(C)C(=O)Nc1cnc(-c2cc(-c3ccon3)n(Cc3ccccc3F)n2)nc1N` [Compound I-258], the EC50 is less than 20 µM. The Emax under setting [1] fell in the range of 40 to 60%. Also, under setting [2], the Emax was 60 to 80%. Moreover, under setting [3], the Emax was in the range of 60 to 80%.

Take `Fc1ccccc1Cn1nc(-c2nc(Cl)cc(C(F)(F)F)n2)cc1-c1ccon1` [Compound I-273]: the Emax by setting is: under setting [2], 20 to 40%; under setting [3], 20 to 40%.

Take `Nc1nc(-c2cc(-c3ncco3)n(Cc3ccccc3F)n2)ncc1N=C(c1ccccc1)c1ccccc1` [Compound I-269]: the EC50 fell in the range of 100 to 300 µM. The Emax under setting [1] was 0 to 10%. The Emax under setting [2] lay within 0 to 10%. Moreover, the Emax under setting [3] was 10 to 20%.

Regarding `CC(C)(C)C(=O)Nc1cnc(-c2cc(-c3ccon3)n(Cc3ccccc3F)n2)nc1` [Compound I-264], the EC50 was 300 to 600 µM. Also, the Emax under setting [1] was 20 to 40%. For the same molecule, under setting [2], the Emax was 40 to 60%. Also, the Emax under setting [3] is 0 to 10%.

As for `Nc1ccnc(-c2cc(-c3ccco3)n(Cc3ccccc3F)n2)n1` [Compound I-284], the Emax lay in the range of 60 to 80% under setting [2] and 60 to 80% under setting [3].

In the case of `Nc1nc(-c2cc(-c3ccon3)n(Cc3ccccc3F)n2)ncc1N1Cc2ccccc2C1=O` [Compound I-259], the EC50 is less than 20 µM. For the same molecule, the Emax under setting [1] is 20 to 40%. Also, under setting [2], the Emax fell in the range of 60 to 80%. In addition, under setting [3], the Emax was in the range of 60 to 80%.

Consider `CC(C)(C(=O)Nc1cnc(-c2cc(-c3ccon3)n(Cc3ccccc3F)n2)nc1N)n1cncn1` [Compound I-270], for which the EC50 is less than 20 µM. Further, the Emax under setting [1] lay in the range of 10 to 20%. In addition, the Emax under setting [2] was in the range of 40 to 60%. Further, under setting [3], the Emax lay in the range of 60 to 80%.

For the molecule `N#Cc1cnc(-c2cc(-c3ncco3)n(Cc3ccccc3F)n2)nc1O` [Compound I-155], the EC50 is less than 20 µM. The Emax under setting [2] is 40 to 60%. The Emax under setting [3] was 60 to 80%.

By EC50 is commonly meant the concentration needed to bring the measured effect to its halfway point.

Values taken from patent US10189809B2, “SGC stimulators” (Ironwood Pharmaceuticals, Inc., priority 2010, dated 2019).
